Measured values as given in the supplement of paper PMC11208160.
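Note: IS621 bridge recombinase in Escherichia coli cells against a fixed T5 target plasmid.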

Assay: recombinant UMI read abundance after kanamycin selection (control-corrected) (log10(CPM+1)); higher = more efficient recombination; extreme values may be limits of the assay; sequences stand for … in AGTGCAGAGAAAATCGGCCAGTTTTCTCTGCCTGCAGTCCGCATGCCGTGGGACCCCTTGGGTTCTAACCTGTTGCCTAGATTTATGCAGCGGACTGCCTTTCTCCCAAAGTGATAAACCGG…AGGTTGGTTTCACT; site = the 11-nt donor
Method: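 Pooled E. coli donor-specificity screen for the IS621 bridge recombinase. Each library member carries a reprogrammed 11-nt donor and a full-length LE bridge RNA expressed in cis from the natural promoter, with a paired donor-binding loop (8-nt LDG + 4-nt RDG) and a target-binding loop fixed to T5. It is co-electroporated with a T5 target plasmid; recombinase is induced with 0.07 mM IPTG and recombinants are selected on kanamycin. UMIs are counted as CPM, averaged over two biological replicates and corrected by the unselected control. Molecule = full bridge RNA written as DNA, built from the T5 scaffold: LDG = donor specificity nt 1-8, RDG = reverse complement of nt 8-11.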
For “ACAGTATCATGGACCGGTTTTCCCGGTAATCCGTATTTGCG (site ACAGTATCTGG)”, the “recombinant UMI read abundance (log10)” value was 2.14.
For “ACAGTATCATGGACCGGTTTTCCCGGTAATCCGTATTTGCG (site ACAGTATCTTG)”, the “recombinant UMI read abundance (log10)” value was 2.57.
For “ACAGTATCATGGACCGGTTTTCCCGGTAATCCGTATTTGTG (site ACAGTATCTCA)”, the “recombinant UMI read abundance (log10)” value was 3.03.
With “ACAGTATCATGGACCGGTTTTCCCGGTAATCCGTATTTGTG (site ACAGTATCTTG)” the “recombinant UMI read abundance (log10)” value was 1.03.
In the case of “ACATAAGCATGGACCGGTTTTCCCGGTAATCCGTATTTGAA (site ACATAAGCTTT)”, the “recombinant UMI read abundance (log10)” value is reported as 2.7.
For “ACATATACATGGACCGGTTTTCCCGGTAATCCGTATTTGTG (site ACATATACTCA)”, the “recombinant UMI read abundance (log10)” value was 1.81.
With “ACATATACATGGACCGGTTTTCCCGGTAATCCGTATTTGTG (site ACATCTACTCA)” the “recombinant UMI read abundance (log10)” value was 0.0121.
In the case of “ACATATACATGGACCGGTTTTCCCGGTAATCCGTATTTGTG (site ACATGTACTCA)”, the “recombinant UMI read abundance (log10)” value is reported as 0.021.
In the case of “ACATATACATGGACCGGTTTTCCCGGTAATCCGTATTTGTG (site ACATTTACTCA)”, the “recombinant UMI read abundance (log10)” value is reported as 0.0115.
In the case of “ACATCCACATGGACCGGTTTTCCCGGTAATCCGTATTTGTG (site ACATCAACTCA)”, the “recombinant UMI read abundance (log10)” value is reported as 0.0218.
In the case of “ACATCCACATGGACCGGTTTTCCCGGTAATCCGTATTTGTG (site ACATCCACTCA)”, the “recombinant UMI read abundance (log10)” value is reported as 0.309.
With “ACATCCACATGGACCGGTTTTCCCGGTAATCCGTATTTGTG (site ACATCGACTCA)” the “recombinant UMI read abundance (log10)” value was 0.00941.
For “ACATCCACATGGACCGGTTTTCCCGGTAATCCGTATTTGTG (site ACATCTACTCA)”, the “recombinant UMI read abundance (log10)” value was 0.0155.
With “ACATCTACATGGACCGGTTTTCCCGGTAATCCGTATTTGCG (site ACATCTACTCA)” the “recombinant UMI read abundance (log10)” value was 0.195.
In the case of “ACATCTACATGGACCGGTTTTCCCGGTAATCCGTATTTGCG (site ACATCTACTCC)”, the “recombinant UMI read abundance (log10)” value is reported as 0.0147.
For “ACATCTACATGGACCGGTTTTCCCGGTAATCCGTATTTGCG (site ACATCTACTCG)”, the “recombinant UMI read abundance (log10)” value was 1.2.
For “ACATCTACATGGACCGGTTTTCCCGGTAATCCGTATTTGCG (site ACATCTACTCT)”, the “recombinant UMI read abundance (log10)” value was 0.353.
With “ACATCTACATGGACCGGTTTTCCCGGTAATCCGTATTTGGG (site ACATCTACTCA)” the “recombinant UMI read abundance (log10)” value was 0.0151.
For “ACATCTACATGGACCGGTTTTCCCGGTAATCCGTATTTGGG (site ACATCTACTCC)”, the “recombinant UMI read abundance (log10)” value was 0.54.
With “ACATCTACATGGACCGGTTTTCCCGGTAATCCGTATTTGGG (site ACATCTACTCG)” the “recombinant UMI read abundance (log10)” value was 0.00576.
For “ACATCTACATGGACCGGTTTTCCCGGTAATCCGTATTTGGG (site ACATCTACTCT)”, the “recombinant UMI read abundance (log10)” value was 0.0169.
For “ACATCTACATGGACCGGTTTTCCCGGTAATCCGTATTTGTG (site AAATCTACTCA)”, the “recombinant UMI read abundance (log10)” value was 0.00563.
For “ACATCTACATGGACCGGTTTTCCCGGTAATCCGTATTTGTG (site ACAACTACTCA)”, the “recombinant UMI read abundance (log10)” value was 0.00896.
With “ACATCTACATGGACCGGTTTTCCCGGTAATCCGTATTTGTG (site ACACCTACTCA)” the “recombinant UMI read abundance (log10)” value was 0.00963.
In the case of “ACATCTACATGGACCGGTTTTCCCGGTAATCCGTATTTGTG (site ACAGCTACTCA)”, the “recombinant UMI read abundance (log10)” value is reported as 0.0992.
With “ACATCTACATGGACCGGTTTTCCCGGTAATCCGTATTTGTG (site ACATATACTCA)” the “recombinant UMI read abundance (log10)” value was 0.324.
For “ACATCTACATGGACCGGTTTTCCCGGTAATCCGTATTTGTG (site ACATCAACTCA)”, the “recombinant UMI read abundance (log10)” value was 0.0141.
In the case of “ACATCTACATGGACCGGTTTTCCCGGTAATCCGTATTTGTG (site ACATCCACTCA)”, the “recombinant UMI read abundance (log10)” value is reported as 0.0072.
With “ACATCTACATGGACCGGTTTTCCCGGTAATCCGTATTTGTG (site ACATCGACTCA)” the “recombinant UMI read abundance (log10)” value was 0.0136.
For “ACATCTACATGGACCGGTTTTCCCGGTAATCCGTATTTGTG (site ACATCTACTAA)”, the “recombinant UMI read abundance (log10)” value was 0.044.
For “ACATCTACATGGACCGGTTTTCCCGGTAATCCGTATTTGTG (site ACATCTACTCA)”, the “recombinant UMI read abundance (log10)” value was 0.552.
For “ACATCTACATGGACCGGTTTTCCCGGTAATCCGTATTTGTG (site ACATCTACTCC)”, the “recombinant UMI read abundance (log10)” value was 0.0178.
In the case of “ACATCTACATGGACCGGTTTTCCCGGTAATCCGTATTTGTG (site ACATCTACTCG)”, the “recombinant UMI read abundance (log10)” value is reported as 0.279.
With “ACATCTACATGGACCGGTTTTCCCGGTAATCCGTATTTGTG (site ACATCTACTCT)” the “recombinant UMI read abundance (log10)” value was 0.188.
In the case of “ACATCTACATGGACCGGTTTTCCCGGTAATCCGTATTTGTG (site ACATCTACTGA)”, the “recombinant UMI read abundance (log10)” value is reported as 0.
In the case of “ACATCTACATGGACCGGTTTTCCCGGTAATCCGTATTTGTG (site ACATCTACTTA)”, the “recombinant UMI read abundance (log10)” value is reported as 0.
In the case of “ACATCTACATGGACCGGTTTTCCCGGTAATCCGTATTTGTG (site ACATCTCCTCA)”, the “recombinant UMI read abundance (log10)” value is reported as 0.0291.
For “ACATCTACATGGACCGGTTTTCCCGGTAATCCGTATTTGTG (site ACATCTGCTCA)”, the “recombinant UMI read abundance (log10)” value was 0.0534.
With “ACATCTACATGGACCGGTTTTCCCGGTAATCCGTATTTGTG (site ACATCTTCTCA)” the “recombinant UMI read abundance (log10)” value was 0.234.
In the case of “ACATCTACATGGACCGGTTTTCCCGGTAATCCGTATTTGTG (site ACATGTACTCA)”, the “recombinant UMI read abundance (log10)” value is reported as 0.023.
With “ACATCTACATGGACCGGTTTTCCCGGTAATCCGTATTTGTG (site ACATTTACTCA)” the “recombinant UMI read abundance (log10)” value was 0.319.
For “ACATCTACATGGACCGGTTTTCCCGGTAATCCGTATTTGTG (site ACCTCTACTCA)”, the “recombinant UMI read abundance (log10)” value was 0.0111.
With “ACATCTACATGGACCGGTTTTCCCGGTAATCCGTATTTGTG (site ACGTCTACTCA)” the “recombinant UMI read abundance (log10)” value was 0.0191.
For “ACATCTACATGGACCGGTTTTCCCGGTAATCCGTATTTGTG (site ACTTCTACTCA)”, the “recombinant UMI read abundance (log10)” value was 0.371.
With “ACATCTACATGGACCGGTTTTCCCGGTAATCCGTATTTGTG (site AGATCTACTCA)” the “recombinant UMI read abundance (log10)” value was 0.00667.
In the case of “ACATCTACATGGACCGGTTTTCCCGGTAATCCGTATTTGTG (site ATATCTACTCA)”, the “recombinant UMI read abundance (log10)” value is reported as 0.245.
With “ACATCTACATGGACCGGTTTTCCCGGTAATCCGTATTTGTG (site CCATCTACTCA)” the “recombinant UMI read abundance (log10)” value was 0.465.
In the case of “ACATCTACATGGACCGGTTTTCCCGGTAATCCGTATTTGTG (site GCATCTACTCA)”, the “recombinant UMI read abundance (log10)” value is reported as 0.305.
In the case of “ACATCTACATGGACCGGTTTTCCCGGTAATCCGTATTTGTG (site TCATCTACTCA)”, the “recombinant UMI read abundance (log10)” value is reported as 0.0183.
For “ACATGGTCATGGACCGGTTTTCCCGGTAATCCGTATTTGTC (site ACATGGTCTGA)”, the “recombinant UMI read abundance (log10)” value was 1.81.
In the case of “ACATTACCATGGACCGGTTTTCCCGGTAATCCGTATTTGCA (site ACAGTATCTTG)”, the “recombinant UMI read abundance (log10)” value is reported as 1.21.
In the case of “ACATTACCATGGACCGGTTTTCCCGGTAATCCGTATTTGCA (site ACATTACCTTG)”, the “recombinant UMI read abundance (log10)” value is reported as 0.
In the case of “ACATTATCATGGACCGGTTTTCCCGGTAATCCGTATTTGCC (site ACAGTATCTTG)”, the “recombinant UMI read abundance (log10)” value is reported as 0.
With “ACATTATCATGGACCGGTTTTCCCGGTAATCCGTATTTGCC (site ACATTATCTGG)” the “recombinant UMI read abundance (log10)” value was 2.56.
With “ACATTGACATGGACCGGTTTTCCCGGTAATCCGTATTTGCC (site ACATTGACTGG)” the “recombinant UMI read abundance (log10)” value was 2.
With “ACCACCGCATGGACCGGTTTTCCCGGTAATCCGTATTTGCG (site ACCACCGCTCG)” the “recombinant UMI read abundance (log10)” value was 0.455.
With “ACCACCGCATGGACCGGTTTTCCCGGTAATCCGTATTTGCG (site CCCACCGCTCG)” the “recombinant UMI read abundance (log10)” value was 0.221.
